≈ marks a conversion by molar mass, not a printed value. Read-outs that look alike come from different tables or passages of the source.
What was measured:
[1] = test system: human leukemia MDR cell line K562/adr; assay: Reversal of P-glycoprotein-mediated drug resistance by Schisandrin A, Schisandrol A, Schisantherin A, MTT cytotoxicity of anticancer agents; format: cell-based; conditions: for IC50: Homo sapiens; for IC50 (ng/ml) +Schisandrin A: anticancer agent in the presence of Schisandrin A (10 μg/ml); for IC50 (ng/ml) +Schisantherin A: anticancer agent in the presence of Schisantherin A (10 μg/ml)
Experimental: Assays were carried out in triplicate against human leukemia MDR cell line K562/adr, human breast cancer MDR cell line MCF7/adr, and human epidermoid carcinoma MDR cell line KBv200.

[2] = test system: HL60/adr; assay: Reversal of MRP1-mediated drug resistance, MTT cytotoxicity of anticancer agents; format: cell-based, human; conditions: for drug sensitivity of HL60/adr toward the anticancer agents (in words): compound 10 μg/ml; for IC50 (ng/ml) +Schisandrin B: anticancer agent in the presence of Schisandrin B (10 μg/ml); for IC50: Homo sapiens, HL60/ADR, 72 h
Experimental: Assays were carried out in triplicate against MDR cancer cell HL60/adr. MTT assays as described previously (X.

[3] = target: T1, MRP1 (Homo sapiens, UniProt P33527); assay: Daunorubicin accumulation in HL60/adr cells (MRP1-mediated drug efflux), flow cytometry; format: cell-based; conditions: 2 μg/ml daunorubicin
T1 construct: human cancer cell line HL60/adr, an MDR cell line characterized by MRP1 overexpression; endogenous in cells; host or cells: HL60/adr (human MDR cancer cell line)
Excerpt: MRP1 functions as a drug pump that unilaterally pumps the anticancer agents out of MDR cancer cells. Inhibition of MRP1 results in an increase of intracellular drug concentration within cancer cells.

[4] = test system: K562/adr; assay: Reversal of drug resistance by ethanol extracts of Schisandra chinensis fruit, MTT cytotoxicity of anticancer agents; format: cell-based, human; conditions: for IC50 (ng/ml) +ethanol extract: anticancer agent in the presence of ethanol extracts (50 μg/ml)
Experimental: Assays were carried out in triplicate against human MDR cancer cell lines K562/adr, KBv200, and MCF7/adr. […] Alternatively, flow cytometry assays using FACS Calibur equipped with software Cellquest 3.1f (Becton-Dickinson, Holbrook, N.J.) were applied to count the cell numbers in each sample.

[5] = test system: human epidermoid carcinoma MDR cell line KBv200; conditions: for IC50 (ng/ml) +Schisandrin A: anticancer agent in the presence of Schisandrin A (10 μg/ml); for IC50 (ng/ml) +Schisandrin A / IC50 (ng/ml) +Schisantherin A: 72 hours; for IC50 (ng/ml) +Schisantherin A: anticancer agent in the presence of Schisantherin A (10 μg/ml)
[6] = test system: human breast cancer MDR cell line MCF7/adr; conditions: for IC50 (ng/ml) +Schisandrin A: anticancer agent in the presence of Schisandrin A (10 μg/ml); for IC50 (ng/ml) +Schisandrin A / IC50 (ng/ml) +Schisantherin A: 72 hours; for IC50 (ng/ml) +Schisantherin A: anticancer agent in the presence of Schisantherin A (10 μg/ml)
[7] = test system: human epidermoid carcinoma MDR cell line KBv200; assay: cells; conditions: KBv200, 72 h
[8] = test system: human breast cancer MDR cell line MCF7/adr; assay: cells; conditions: NCI/ADR-RES, 72 h
[9] = test system: MCF7/adr; assay: Reversal of drug resistance by ethanol extracts of Schisandra chinensis fruit, MTT cytotoxicity of anticancer agents; conditions: for IC50: Homo sapiens, NCI/ADR-RES, 72 h, read-out: IC50 (ng/ml) −ethanol extract; for IC50 (ng/ml) +ethanol extract: anticancer agent in the presence of ethanol extracts (50 μg/ml), 72 hours
[10] = test system: MCF7; assay: Enhancement of anticancer agent-induced apoptosis and necrosis, Anexin V-FITC/PI; format: cell-based, human; conditions: 48 hours; for Apoptotic + necrotic (%): MCF7, doxorubicin 0.5 μg/ml, Schisandrin B 20 μg/ml
Experimental: (§1) To illustrate the activities of Schisandrin B or its analogs enhancing the apoptosis of cancer cells induced by an anticancer agent according to the present disclosure, human cancer cell line SMMC7721, a non-drug-resistant hepatic cancer cell line, and MCF7, a non-drug-resistant breast cancer cell line, were selected for use. Assays were carried out in triplicates against SMMC7721 or MCF7. […] Cells were collected and the apoptotic cells and necrotic cell percentages were determined using Anexin V-FITC/PI kit (Sigma, St. Louis, Mo., USA) according to manufacturer's instructions. Alternatively, the apoptotic and necrotic cell percentages were measured using DNA Plus kit (Becton-Dickinson, USA) according to the manufacturer's instructions.

[11] = test system: SMMC7721; assay: as above; format: cell-based, human; conditions: 48 hours; for Apoptotic(%) / Necrotic(%): doxorubicin 0.5 μg/ml
Experimental: as §1

[12] = test system: KBv200; assay: Reversal of drug resistance by ethanol extracts of Schisandra chinensis fruit, MTT cytotoxicity of anticancer agents; conditions: Homo sapiens, KBv200, 72 h, read-out: IC50 (ng/ml) −ethanol extract
[13] = HL60/adr, by Schisandrin B (10 μg/ml)
[14] = HL60/adr, anticancer agent in the absence of Schisandrin B, 72 hours, read-out: IC50 (ng/ml) −Schisandrin B
[15] = read-out: IC50 (ng/ml) −Schisandrin A
[16] = read-out: IC50 (ng/ml) −Schisantherin A
[17] = SMMC7721, Schisandrin B 20 μg/ml
[18] = Schisandrin B 20 μg/ml with doxorubicin 0.5 μg/ml

T1 sequence (P33527 whole entry): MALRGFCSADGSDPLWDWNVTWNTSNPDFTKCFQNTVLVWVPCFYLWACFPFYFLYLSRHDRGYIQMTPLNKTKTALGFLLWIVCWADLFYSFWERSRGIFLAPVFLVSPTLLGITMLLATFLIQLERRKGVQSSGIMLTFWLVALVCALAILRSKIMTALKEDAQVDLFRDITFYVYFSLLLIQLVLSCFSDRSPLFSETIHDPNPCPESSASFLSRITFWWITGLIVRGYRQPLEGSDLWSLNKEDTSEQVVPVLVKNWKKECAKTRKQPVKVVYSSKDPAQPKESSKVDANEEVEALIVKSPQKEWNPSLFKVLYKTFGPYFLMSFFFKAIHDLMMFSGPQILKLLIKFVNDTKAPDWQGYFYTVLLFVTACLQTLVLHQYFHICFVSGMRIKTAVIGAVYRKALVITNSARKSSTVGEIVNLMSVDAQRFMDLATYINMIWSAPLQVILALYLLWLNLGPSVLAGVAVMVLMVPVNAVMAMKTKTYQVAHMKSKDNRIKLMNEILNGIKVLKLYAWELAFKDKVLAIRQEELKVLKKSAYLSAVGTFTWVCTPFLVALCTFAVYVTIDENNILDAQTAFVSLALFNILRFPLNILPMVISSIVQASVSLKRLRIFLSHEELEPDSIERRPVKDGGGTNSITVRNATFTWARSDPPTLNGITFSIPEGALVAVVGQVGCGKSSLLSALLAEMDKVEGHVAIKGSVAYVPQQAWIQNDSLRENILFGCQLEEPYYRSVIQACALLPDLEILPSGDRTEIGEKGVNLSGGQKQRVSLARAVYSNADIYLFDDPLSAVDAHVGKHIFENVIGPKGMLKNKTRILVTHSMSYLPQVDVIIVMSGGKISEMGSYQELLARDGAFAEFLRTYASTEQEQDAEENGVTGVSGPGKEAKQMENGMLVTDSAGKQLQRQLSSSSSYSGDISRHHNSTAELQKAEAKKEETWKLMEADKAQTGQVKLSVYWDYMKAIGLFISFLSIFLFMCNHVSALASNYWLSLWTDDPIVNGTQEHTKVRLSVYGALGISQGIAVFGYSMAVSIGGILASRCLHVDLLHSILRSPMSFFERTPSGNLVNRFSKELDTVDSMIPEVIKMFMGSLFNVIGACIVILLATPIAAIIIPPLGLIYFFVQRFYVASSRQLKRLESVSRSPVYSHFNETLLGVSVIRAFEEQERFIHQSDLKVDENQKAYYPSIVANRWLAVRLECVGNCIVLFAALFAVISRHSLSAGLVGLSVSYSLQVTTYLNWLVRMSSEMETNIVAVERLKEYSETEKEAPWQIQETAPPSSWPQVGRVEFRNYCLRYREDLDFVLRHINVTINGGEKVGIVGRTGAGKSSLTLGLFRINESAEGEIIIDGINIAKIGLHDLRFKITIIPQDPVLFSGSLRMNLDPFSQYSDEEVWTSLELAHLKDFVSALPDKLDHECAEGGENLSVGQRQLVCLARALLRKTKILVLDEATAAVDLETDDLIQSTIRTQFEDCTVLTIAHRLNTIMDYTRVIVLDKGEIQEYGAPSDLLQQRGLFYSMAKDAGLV

COc1cc2c(c(OC)c1OC)-c1c(cc(OC)c(OC)c1OC)C[C@H](C)[C@H](C)C2 [Schisandrin A]
sensitivity of MDR cancer cell K562/adr to daunorubicin (in words) ([1]; FIG. 3): increase the sensitivity
increase of sensitivity of K562/adr to daunorubicin ([1]; Schisandrin A 1 μg/ml, FIG. 3): about 8 folds
increase of sensitivity of K562/adr to daunorubicin ([1]; Schisandrin A 10 μg/ml, FIG. 3): ~71 folds
increase of sensitivity of K562/adr to daunorubicin ([1]; Schisandrin A 20 μg/ml, FIG. 3): ~100 folds
drug sensitivity of HL60/adr toward the anticancer agents (in words) [2]: enhanced
daunorubicin accumulation within HL60/adr cells (in words) ([3]; 60 minutes, FIG. 7): increased with the increasing concentration

CC(=O)O[C@H]1C(=O)[C@@]2(C)[C@H]([C@H](OC(=O)c3ccccc3)[C@]3(O)C[C@H](OC(=O)[C@H](O)[C@@H](NC(=O)c4ccccc4)c4ccccc4)C(C)=C1C3(C)C)[C@]1(OC(C)=O)CO[C@@H]1C[C@@H]2O [Taxol]
IC50 ([4]; Homo sapiens, anticancer agent in the absence of ethanol extracts, 72 hours, read-out: IC50 (ng/ml) −ethanol extract): 110 ± 20 ng/mL
IC50 (ng/ml) +ethanol extract ([4]; 72 hours): 41 ± 24 ng/mL
RF (reversal folds of drug resistance) ([4]; by ethanol extracts (50 μg/ml)): 2.7
IC50 ([1]; K562/Adr, 72 h, K562/adr, anticancer agent in the absence of Schisandrin A, 72 hours, read-out: IC50 (ng/ml) −Schisandrin A): 38 ± 11 ng/mL
IC50 ([1]; K562/Adr, 72 h, K562/adr, anticancer agent in the absence of Schisantherin A, 72 hours, read-out: IC50 (ng/ml) −Schisantherin A): 38 ± 12 ng/mL
IC50 (ng/ml) +Schisandrin A ([1]; K562/adr, 72 hours): 6.4 ± 3.2 ng/mL
IC50 (ng/ml) +Schisantherin A ([1]; K562/adr, 72 hours): 1.1 ± 1.0 ng/mL
RF (reversal folds of drug resistance) ([1]; K562/adr, by Schisandrin A (10 μg/ml)): 5.9
RF (reversal folds of drug resistance) ([1]; K562/adr, by Schisantherin A (10 μg/ml)): 34.5
IC50 (ng/ml) +Schisandrin A ([2]; HL60/adr, anticancer agent in the presence of Schisandrin A (10 μg/ml), 72 hours): 4.1 ± 1.4 ng/mL
IC50 (ng/ml) +Schisandrin B ([2]; HL60/adr, 72 hours): <1 ng/mL
IC50 (ng/ml) +Schisantherin A ([2]; HL60/adr, anticancer agent in the presence of Schisantherin A (10 μg/ml), 72 hours): 4.3 ± 1.4 ng/mL
RF (reversal folds of drug resistance) ([2]; HL60/adr, by Schisandrin A (10 μg/ml)): 7.8
RF (reversal folds of drug resistance) [2, 13]: >3
RF (reversal folds of drug resistance) ([2]; HL60/adr, by Schisantherin A (10 μg/ml)): 7.4
IC50 ([2]; HL60/adr, anticancer agent in the absence of Schisandrin A, 72 hours, read-out: IC50 (ng/ml) −Schisandrin A): 32 ± 9 ng/mL
IC50 [2, 14]: 3 ng/mL
IC50 ([2]; HL60/adr, anticancer agent in the absence of Schisantherin A, 72 hours, read-out: IC50 (ng/ml) −Schisantherin A): 32 ± 9 ng/mL
IC50 (ng/ml) +Schisandrin A [5]: 1.91 ± 1.2 ng/mL
IC50 (ng/ml) +Schisantherin A [5]: 2.4 ± 0.7 ng/mL
RF (reversal folds of drug resistance) ([5]; by Schisandrin A (10 μg/ml)): 10.6
RF (reversal folds of drug resistance) ([5]; by Schisantherin A (10 μg/ml)): 8.4
IC50 (ng/ml) +Schisandrin A [6]: 6.1 ± 1.9 ng/mL
IC50 (ng/ml) +Schisantherin A [6]: 6.3 ± 3.1 ng/mL
RF (reversal folds of drug resistance) ([6]; by Schisandrin A (10 μg/ml)): 6.6
RF (reversal folds of drug resistance) ([6]; by Schisantherin A (10 μg/ml)): 6.4
IC50 [7, 15]: 20.2 ± 2.8 ng/mL (≈ 0.0237 µM)
IC50 [7, 16]: 20.2 ± 3.8 ng/mL (≈ 0.0237 µM)
IC50 [8, 15]: 40.5 ± 11 ng/mL (≈ 0.0474 µM)
IC50 [8, 16]: 40.6 ± 20.3 ng/mL (≈ 0.0475 µM)
IC50 [9]: 73 ± 27 ng/mL
IC50 (ng/ml) +ethanol extract ([9]; MCF7/adr): 25 ± 12 ng/mL
RF (reversal folds of drug resistance) ([9]; MCF7/adr, by ethanol extracts (50 μg/ml)): 2.9

COc1cccc2c1C(=O)c1c(O)c3c(c(O)c1C2=O)C[C@@](O)(C(=O)CO)C[C@@H]3O[C@H]1C[C@H](N)[C@H](O)[C@H](C)O1 [doxorubicin]
IC50 ([1]; K562/Adr, read-out: IC50 of doxorubicin toward K562/adr, in the absence of Schisandrol A): 875 ± 248 ng/mL
IC50 ([1]; K562/Adr, read-out: IC50 of doxorubicin toward K562/adr, in the presence of Schisandrol A (10 μg/ml)): 168 ± 43 ng/mL
Apoptotic + necrotic (%) [10]: 7.2 ± 0.8%
Apoptotic(%) [11, 17]: 5.2 ± 2.6%
Necrotic(%) [11, 17]: 16.5 ± 4.3%

O=C1c2c(O)ccc(O)c2C(=O)c2c(NCCNCCO)ccc(NCCNCCO)c21 [Mitoxantrone]
IC50 (ng/ml) +Schisandrin B ([2]; HL60/adr, 72 hours): <1 ng/mL
RF (reversal folds of drug resistance) [2, 13]: >68
IC50 [2, 14]: 68 ng/mL

COc1cc2c(c(OC)c1OC)-c1c(cc3c(c1OC)OCO3)C[C@@H](C)[C@@H](C)C2 [Schisandrin B]
RF (reversal folds of vincristine resistance) ([2]; HL60/adr, Schisandrin B 10 μg/ml): ~10.5
RF (reversal folds of vincristine resistance) ([2]; HL60/adr, Schisandrin B 20 μg/ml): >42
drug sensitivity of HL60/adr toward the anticancer agents (in words) [2]: enhanced
daunorubicin accumulation within HL60/adr cells (in words) ([3]; 90 minutes, FIG. 6): increased proportionately with increasing concentration
daunorubicin accumulation in HL60/adr cells versus absence of Schisandrin B ([3]; Schisandrin B 20 μg/ml, 90 minutes, FIG. 6): 4 folds
Apoptotic + necrotic (%) [10]: 1.9 ± 0.1%
apoptosis and necrosis of MCF7 induced by doxorubicin (in words) [10, 18]: significantly enhanced
Apoptotic(%) [11, 17]: 2.4 ± 2.1%
Necrotic(%) [11, 17]: 1.5 ± 0.9%
Apoptotic + necrotic (%) ([11]; SMMC7721, vincristine 0.5 μg/ml, Schisandrin B 20 μg/ml): 2.6 ± 0.4%
apoptosis and necrosis of SMMC7721 cells induced by doxorubicin (in words) [11, 18]: significantly enhanced
apoptosis and necrosis of SMMC7721 induced by vincristine (in words) ([11]; Schisandrin B 20 μg/ml with vincristine 0.5 μg/ml): significantly enhanced

COc1cccc2c1C(=O)c1c(O)c3c(c(O)c1C2=O)C[C@@](O)(C(C)=O)C[C@@H]3O[C@H]1C[C@H](N)[C@H](O)[C@H](C)O1 [Daunorubicin]
IC50 (ng/ml) +ethanol extract ([4]; 72 hours): 150 ± 19 ng/mL
IC50 ([1]; K562/adr, anticancer agent in the absence of Schisandrin A, 72 hours, read-out: IC50 (ng/ml) −Schisandrin A): 4780 ± 1380 ng/mL
IC50 ([1]; K562/adr, anticancer agent in the absence of Schisantherin A, 72 hours, read-out: IC50 (ng/ml) −Schisantherin A): 1300 ± 293 ng/mL
IC50 (ng/ml) +Schisandrin A ([1]; K562/adr, 72 hours): 67.2 ± 21.3 ng/mL
IC50 (ng/ml) +Schisantherin A ([1]; K562/adr, 72 hours): 71 ± 22 ng/mL
IC50 (ng/ml) +Schisandrin A [5]: 2.47 ± 0.9 ng/mL
IC50 (ng/ml) +Schisantherin A [5]: 3.4 ± 1.3 ng/mL
IC50 (ng/ml) +Schisandrin A [6]: 245 ± 46 ng/mL
IC50 (ng/ml) +Schisantherin A [6]: 58.8 ± 21 ng/mL
IC50 [7, 15]: 26.9 ± 8.1 ng/mL (≈ 0.051 µM)
IC50 [7, 16]: 26.9 ± 4.3 ng/mL (≈ 0.051 µM)
IC50 [8, 15]: 2560 ± 413 ng/mL (≈ 4.85 µM)
IC50 [8, 16]: 812 ± 193 ng/mL (≈ 1.54 µM)
IC50 [12]: 20 ± 8 ng/mL
IC50 [9]: 320 ± 71 ng/mL
IC50 (ng/ml) +ethanol extract ([9]; MCF7/adr): 31 ± 10 ng/mL

COc1cc([C@@H]2c3cc4c(cc3[C@@H](O[C@@H]3O[C@@H]5CO[C@@H](C)O[C@H]5[C@H](O)[C@H]3O)[C@H]3COC(=O)[C@H]23)OCO4)cc(OC)c1O [VP-16]
IC50 (ng/ml) −Schisandrin B ([2]; HL60/adr, anticancer agent in the absence of Schisandrin B, 72 hours): >10000 ng/mL
IC50 (ng/ml) +Schisandrin B ([2]; HL60/adr, 72 hours): 1490 ± 213 ng/mL
RF (reversal folds of drug resistance) [2, 13]: >6.7

Reference: patent US20050282910A1, “Methods of application of chemical compounds having therapeutic activities in treating cancers” (priority 2003, published 2005)
